Patent US6667034B2, “METHODS FOR REGULATING THE SPECIFIC LINEAGES OF CELLS PRODUCED IN A HUMAN HEMATOPOIETIC CELL CULTURE, METHODS FOR ASSAYING THE EFFECT OF SUBSTANCES ON LINEAGE-SPECIFIC CELL PRODUCTION, AND CELL COMPOSITIONS PRODUCED BY THESE CULTURES” (The Regents of the University of Michigan, priority 1989, dated 2003)

Assays:
Type in all cases: cell-based
[1] = system: Human bone marrow cells; assay: Cumulative cell production by cell lineage in growth factor supplemented LTBMCs over the first 6.5 weeks (Example 5, Table 4); conditions: first 6.5 weeks of culture
Excerpt: Cells, hematopoietic progenitor cell assays, LTBMCs, and statistical analyses were as in Example 1.

[2] = system: Human bone marrow cells; assay: Cumulative number of progenitor cells removed from rapidly perfused HGF supplemented LTBMCs (Example 5, Table 5)
Protocol: Hematopoietic progenitor cell assay: Nonadherent hematopoietic cells removed from culture were counted and plated at 1·10^5 cells/ml or fewer cells in methylcellulose. GM-CSF and Epo were added to the methylcellulose at 20 ng/ml and 2 U/ml, respectively. The cells were plated in 24 well plates at 0.25 ml/well and incubated at 37° C. for 14 days. The colonies were then counted under an inverted microscope and colonies greater than 50 cells were scored as GM-colony forming units (CFU-GM), erythroid burst-forming unit (BFU-E), or granulocyte erythroid megakaryocyte macrophage-colony forming unit (CFU-GEMM). Cells, hematopoietic progenitor cell assays, LTBMCs, and statistical analyses were as in Example 1.

[3] = system: Human bone marrow cells; assay: Population balance: cumulative production of BFU-E removed and differentiated in HGF supplemented LTBMCs (Example 5, Table 6)
Excerpt: (§1) Production of Progenitor Cells from Stem Cells. Although the most primitive hematopoietic cells that can be directly assayed are the progenitor cells; CFU-GEMM, CFU-GM, and BFU-E, the presence and activity or earlier stem cells can be inferred by the continued production of progenitor cells. Thus, progenitor cell production is an indirect measure of primitive stem cell activity. One can assay stem cells, therefore, by analyzing the kinetics of the progenitor cell pool. The four process rates that determine the progenitor cell pool size are: V1: The rate of production of progenitor cells by more undifferentiated stem cells; V2: The rate of loss of progenitor cells through the act of sampling of nonadherent cells from the culture; V3: The rate of loss of progenitor cells by their differentiation to mature cells of a particular lineage; V4: The rate of death of progenitor cells. The initial number, C0, of each progenitor cell species can be determined by assay at culture initiation. The question that we wish to answer is; Are stem cells being stimulated to produced progenitor cells—i.e. is V1 greater than zero? Cell death, V4, cannot be assessed. V2 however, can be measured by assaying the nonadherent cells removed from culture, and V3 can be estimated from nonadherent cell production data. A conservative estimate of the rate of progenitor cell differentiation, V3, can be determined by assuming that each progenitor cell has 10 divisions remaining to become a terminally differentiated cell. Therefore, each progenitor cell is equivalent to 2^10 (1024) mature cells. From the total number of mature cells produced of a specific lineage, the number of progenitor cells (BFU-E and CFU-GM) that differentiated can be back-calculated. Therefore, if the removal and differentiation of progenitor cells (V2+V3) exceeds the numbers of progenitor cells inoculated, Co, then progenitor cells must have been produced, and V1 is greater than zero.

[4] = system: Human bone marrow cells; assay: Population balance: cumulative production of CFU-GM removed and differentiated in HGF supplemented LTBMCs (Example 5, Table 7)
Excerpt: as §1

[5] = IL-3 1 ng/ml, GM-CSF 1 ng/ml, Epo 0.1 U/ml, IL-6 10 U/ml, G-CSF 0.1 ng/ml
[6] = cumulative, rapidly perfused LTBMCs
[7] = rapidly perfused HGF supplemented LTBMCs
[8] = back-calculated assuming each progenitor cell is equivalent to 2^10 (1024) mature cells

GM-CSF: hematopoietic growth factor, 1 ng/ml (Amgen Biologicals, Cat. No. 13050)
Cumulative cell production: Early Granulocytes (EG) [1, 5]: 2.7 ×10^6 cells per culture | Cumulative cell production: Erythroid (E) [1, 5]: 0.11 ×10^6 cells per culture | Cumulative cell production: Late Granulocytes (LG) [1, 5]: 6.8 ×10^6 cells per culture | Cumulative cell production: Macrophages (Mo) [1, 5]: 2.1 ×10^6 cells per culture | ratio (LG/EG) ([1]; late to early granulocytes): 2.5 | increase in the total number of CFU-GEMM removed from culture [2, 6]: 1.6 fold | effect on total CFU-GM ([2]; individual growth factor): only a slight increase | cumulative number of progenitor cells removed: BFU-E [2, 7]: 800 | cumulative number of progenitor cells removed: CFU-GEMM [2, 7]: 80 | cumulative number of progenitor cells removed: CFU-GM [2, 7]: 2200 | Estimated number of BFU-E that differentiated (V3) [3, 8]: 100 | Number of erythroid cells removed (×10^4) (V3) [3, 6]: 0.1 ×10^4 | Number of BFU-E removed (plated) (V3) ([3]; every fourth biweekly sampling assayed, others by linear interpolation, inoculum 2900 BFU-E): 800 | Total number of BFU-E (V3) ([3]; removed plus differentiated, inoculum 2900): 900 | Estimated number of CFU-GM that differentiated (V3) [4, 8]: 11,700 | Number of GM cells removed (×10^4) (V3) [4, 6]: 11.7 ×10^4 | Number of CFU-GM removed (plated) (V2) ([4]; every fourth biweekly sampling assayed, others by linear interpolation, inoculum 2500 CFU-GM): 2200 | Total number of CFU-GM (V3) ([4]; removed plus differentiated): 13,900
